Laboratory results taken from ChEMBL document CHEMBL3046455, “Synthesis and pharmacological evaluation of some novel 4-isopropyl thiazole-based sulfonyl derivatives as potent antimicrobial and antitubercular agents” (Med Chem Res, 2013).
In brackets after ≈: the same amount, converted by molar mass.

Experiments:
Escherichia coli = assay: Antibacterial activity against Escherichia coli ATCC 10536 after 24 hr by broth microdilution method; assay type: functional; settings: ATCC 10536, 24 h
A549 = assay: Cytotoxicity against Homo sapiens (human) A549 cells at […] by MTT assay relative to control; assay type: cell-based
[1] = system: Mycobacterium tuberculosis; assay: Antitubercular activity against Mycobacterium tuberculosis H37Rv after 21 days by broth microdilution method; assay type: functional; settings: 504 h
Staphylococcus aureus = assay: Antibacterial activity against Staphylococcus aureus ATCC 11632 after 24 hr by broth microdilution method; assay type: functional; settings: ATCC 11632, 24 h
Pseudomonas aeruginosa = assay: Antibacterial activity against Pseudomonas aeruginosa ATCC 10145 after 24 hr by broth microdilution method; assay type: functional; settings: ATCC 10145, 24 h
Aspergillus niger = assay: Antifungal activity against Aspergillus niger ATCC 6275 after 24 hr by broth microdilution method; assay type: functional; settings: ATCC 6275, 24 h
Klebsiella pneumoniae = assay: Antibacterial activity against Klebsiella pneumoniae ATCC 10031 after 24 hr by broth microdilution method; assay type: functional; settings: ATCC 10031, 24 h
Bacillus subtilis = assay: Antibacterial activity against Bacillus subtilis ATCC 60511 after 24 hr by broth microdilution method; assay type: functional; settings: ATCC 60511, 24 h
Candida tropicalis = assay: Antifungal activity against Candida tropicalis ATCC 1369 after 24 hr by broth microdilution method; assay type: functional; settings: ATCC 1369, 24 h
Saccharomyces cerevisiae = assay: Antifungal activity against Saccharomyces cerevisiae ATCC 9763 after 24 hr by broth microdilution method; assay type: functional; settings: ATCC 9763, 24 h
Enterococcus faecalis = assay: Antibacterial activity against Enterococcus faecalis ATCC 14506 after 24 hr by broth microdilution method; assay type: functional; settings: ATCC 14506, 24 h

SMILES	MIC (Escherichia coli)	Activity (A549)	MIC [1]	MIC (Staphylococcus aureus)	MIC (Pseudomonas aeruginosa)	MIC (Aspergillus niger)	MIC (Klebsiella pneumoniae)	MIC (Bacillus subtilis)	MIC (Candida tropicalis)	MIC (Saccharomyces cerevisiae)	MIC (Enterococcus faecalis)
CC(C)c1csc(-c2nnc(S(=O)(=O)Cc3ccc(OC(F)(F)F)cc3)n2-c2ccccc2)n1	2 µg/mL (≈ 3.93 µM)	50%	1 µg/mL (≈ 1.97 µM)	31.2 µg/mL (≈ 61.4 µM)	8 µg/mL (≈ 15.7 µM)	31.2 µg/mL (≈ 61.4 µM)	4 µg/mL (≈ 7.87 µM)	8 µg/mL (≈ 15.7 µM)	16 µg/mL (≈ 31.5 µM)	16 µg/mL (≈ 31.5 µM)	8 µg/mL (≈ 15.7 µM)
CC(C)c1csc(-c2nnc(S(=O)(=O)Cc3ccc(Br)cc3F)n2-c2ccccc2)n1	8 µg/mL (≈ 15.3 µM)	–	8 µg/mL (≈ 15.3 µM)	31.2 µg/mL (≈ 59.9 µM)	16 µg/mL (≈ 30.7 µM)	16 µg/mL (≈ 30.7 µM)	16 µg/mL (≈ 30.7 µM)	16 µg/mL (≈ 30.7 µM)	31.2 µg/mL (≈ 59.9 µM)	16 µg/mL (≈ 30.7 µM)	31.2 µg/mL (≈ 59.9 µM)
NNC(=O)c1ccncc1 [ISONIAZID]	–	–	0.25 µg/mL (≈ 1.82 µM)	–	–	–	–	–	–	–	–
CC(C)c1csc(-c2nnc(S(=O)(=O)Cc3ccccc3C(F)(F)F)o2)n1	8 µg/mL (≈ 19.2 µM)	50%	2 µg/mL (≈ 4.79 µM)	8 µg/mL (≈ 19.2 µM)	4 µg/mL (≈ 9.58 µM)	125 µg/mL (≈ 299 µM)	2 µg/mL (≈ 4.79 µM)	31.2 µg/mL (≈ 74.9 µM)	31.2 µg/mL (≈ 74.9 µM)	8 µg/mL (≈ 19.2 µM)	16 µg/mL (≈ 38.3 µM)
CC(C)c1csc(-c2nnc(S(=O)(=O)Cc3ccc(C(F)(F)F)cc3)n2/N=C/c2ccc(F)cc2)n1	8 µg/mL (≈ 14.9 µM)	Toxic	2 µg/mL (≈ 3.72 µM)	4 µg/mL (≈ 7.44 µM)	8 µg/mL (≈ 14.9 µM)	4 µg/mL (≈ 7.44 µM)	4 µg/mL (≈ 7.44 µM)	8 µg/mL (≈ 14.9 µM)	16 µg/mL (≈ 29.8 µM)	4 µg/mL (≈ 7.44 µM)	8 µg/mL (≈ 14.9 µM)
CC(C)c1csc(-c2nnc(S(=O)(=O)Cc3cc(Cl)ccc3F)n2-c2ccccc2)n1	4 µg/mL (≈ 8.39 µM)	–	4 µg/mL (≈ 8.39 µM)	16 µg/mL (≈ 33.5 µM)	8 µg/mL (≈ 16.8 µM)	31.2 µg/mL (≈ 65.5 µM)	8 µg/mL (≈ 16.8 µM)	31.2 µg/mL (≈ 65.5 µM)	16 µg/mL (≈ 33.5 µM)	16 µg/mL (≈ 33.5 µM)	31.2 µg/mL (≈ 65.5 µM)
CC(C)c1csc(-c2nnc(S(=O)(=O)Cc3ccc(Br)cc3F)n2/N=C/c2ccc(F)cc2)n1	8 µg/mL (≈ 14.1 µM)	–	16 µg/mL (≈ 28.2 µM)	16 µg/mL (≈ 28.2 µM)	62.5 µg/mL (≈ 110 µM)	31.2 µg/mL (≈ 55.2 µM)	8 µg/mL (≈ 14.1 µM)	31.2 µg/mL (≈ 55.2 µM)	31.2 µg/mL (≈ 55.2 µM)	31.2 µg/mL (≈ 55.2 µM)	31.2 µg/mL (≈ 55.2 µM)
CC(C)c1csc(-c2nnc(S(=O)(=O)Cc3ccc(C(F)(F)F)cc3)n2/N=C/c2ccc(Cl)cc2)n1	8 µg/mL (≈ 14.4 µM)	50%	4 µg/mL (≈ 7.22 µM)	4 µg/mL (≈ 7.22 µM)	4 µg/mL (≈ 7.22 µM)	4 µg/mL (≈ 7.22 µM)	16 µg/mL (≈ 28.9 µM)	4 µg/mL (≈ 7.22 µM)	8 µg/mL (≈ 14.4 µM)	4 µg/mL (≈ 7.22 µM)	8 µg/mL (≈ 14.4 µM)
CC(C)c1csc(-c2nnc(S(=O)(=O)Cc3ccc(Cl)cc3)n2/N=C/c2ccc(F)cc2)n1	16 µg/mL (≈ 31.7 µM)	–	8 µg/mL (≈ 15.9 µM)	8 µg/mL (≈ 15.9 µM)	16 µg/mL (≈ 31.7 µM)	31.2 µg/mL (≈ 62 µM)	31.2 µg/mL (≈ 62 µM)	4 µg/mL (≈ 7.94 µM)	31.2 µg/mL (≈ 62 µM)	31.2 µg/mL (≈ 62 µM)	4 µg/mL (≈ 7.94 µM)
OC(Cn1cncn1)(Cn1cncn1)c1ccc(F)cc1F [FLUCONAZOLE]	–	–	–	–	–	≤ 1 µg/mL	–	–	≤ 1 µg/mL	≤ 1 µg/mL	–
CC(C)c1csc(-c2nnc(S(=O)(=O)Cc3ccc(Br)cc3)n2/N=C/c2c(F)cccc2F)n1	8 µg/mL (≈ 14.1 µM)	–	8 µg/mL (≈ 14.1 µM)	31.2 µg/mL (≈ 55.2 µM)	8 µg/mL (≈ 14.1 µM)	8 µg/mL (≈ 14.1 µM)	8 µg/mL (≈ 14.1 µM)	16 µg/mL (≈ 28.2 µM)	8 µg/mL (≈ 14.1 µM)	62.5 µg/mL (≈ 110 µM)	16 µg/mL (≈ 28.2 µM)
CC(C)c1csc(-c2nnc(S(=O)(=O)Cc3ccc(Cl)cc3)n2/N=C/c2ccc(Cl)cc2)n1	62.5 µg/mL (≈ 120 µM)	–	8 µg/mL (≈ 15.4 µM)	8 µg/mL (≈ 15.4 µM)	8 µg/mL (≈ 15.4 µM)	8 µg/mL (≈ 15.4 µM)	31.2 µg/mL (≈ 60 µM)	31.2 µg/mL (≈ 60 µM)	8 µg/mL (≈ 15.4 µM)	16 µg/mL (≈ 30.7 µM)	8 µg/mL (≈ 15.4 µM)
O=C(O)c1cn(C2CC2)c2cc(N3CCNCC3)c(F)cc2c1=O [CIPROFLOXACIN]	≤ 1 µg/mL	–	–	≤ 5 µg/mL	≤ 5 µg/mL	–	≤ 1 µg/mL	≤ 1 µg/mL	–	–	≤ 5 µg/mL
